# ChEMBL document CHEMBL1139937, “Novel 3-galloylamido-N'-substituted-2,6-piperidinedione-N-acetamide peptidomimetics as metalloproteinase inhibitors” (Bioorg Med Chem Lett, 2007)
# Columns and labels:
# Aminopeptidase N = molecular target: T1, Aminopeptidase N (Sus scrofa, UniProt P15145); assay: Inhibition of pig kidney microsomal aminopeptidase assessed as liberation of p-nitroanilide
# T1 sequence (P15145 whole entry): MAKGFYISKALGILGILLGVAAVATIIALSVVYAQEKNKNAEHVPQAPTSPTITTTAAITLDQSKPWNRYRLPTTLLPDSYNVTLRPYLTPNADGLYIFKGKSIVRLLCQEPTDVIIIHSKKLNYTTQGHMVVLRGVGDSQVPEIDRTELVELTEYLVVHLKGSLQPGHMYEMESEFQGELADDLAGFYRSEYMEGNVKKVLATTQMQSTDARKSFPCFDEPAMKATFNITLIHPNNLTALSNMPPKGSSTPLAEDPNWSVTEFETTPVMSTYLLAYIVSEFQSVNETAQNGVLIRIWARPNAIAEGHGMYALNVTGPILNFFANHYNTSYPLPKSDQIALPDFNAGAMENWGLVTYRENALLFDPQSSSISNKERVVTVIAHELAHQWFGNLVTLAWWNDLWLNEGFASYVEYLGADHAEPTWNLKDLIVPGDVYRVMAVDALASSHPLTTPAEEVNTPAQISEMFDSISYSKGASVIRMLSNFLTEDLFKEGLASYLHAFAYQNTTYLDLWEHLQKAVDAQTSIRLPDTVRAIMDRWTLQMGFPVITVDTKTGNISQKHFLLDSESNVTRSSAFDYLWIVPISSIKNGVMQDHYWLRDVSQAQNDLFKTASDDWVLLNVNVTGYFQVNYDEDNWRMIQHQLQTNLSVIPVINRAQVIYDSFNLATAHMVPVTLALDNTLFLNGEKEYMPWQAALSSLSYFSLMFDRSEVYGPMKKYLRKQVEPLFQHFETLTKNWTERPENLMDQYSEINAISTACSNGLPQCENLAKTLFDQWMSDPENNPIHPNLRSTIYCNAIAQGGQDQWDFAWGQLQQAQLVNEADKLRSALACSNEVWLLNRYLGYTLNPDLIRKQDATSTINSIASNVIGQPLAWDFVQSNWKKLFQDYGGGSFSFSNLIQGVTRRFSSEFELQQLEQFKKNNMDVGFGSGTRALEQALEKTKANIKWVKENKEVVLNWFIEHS
# [1] = molecular target: 72 kDa type IV collagenase (Homo sapiens, UniProt P08253); assay: Inhibition of MMP2 after 30 mins
# Sequence of 72 kDa type IV collagenase (P08253 whole entry): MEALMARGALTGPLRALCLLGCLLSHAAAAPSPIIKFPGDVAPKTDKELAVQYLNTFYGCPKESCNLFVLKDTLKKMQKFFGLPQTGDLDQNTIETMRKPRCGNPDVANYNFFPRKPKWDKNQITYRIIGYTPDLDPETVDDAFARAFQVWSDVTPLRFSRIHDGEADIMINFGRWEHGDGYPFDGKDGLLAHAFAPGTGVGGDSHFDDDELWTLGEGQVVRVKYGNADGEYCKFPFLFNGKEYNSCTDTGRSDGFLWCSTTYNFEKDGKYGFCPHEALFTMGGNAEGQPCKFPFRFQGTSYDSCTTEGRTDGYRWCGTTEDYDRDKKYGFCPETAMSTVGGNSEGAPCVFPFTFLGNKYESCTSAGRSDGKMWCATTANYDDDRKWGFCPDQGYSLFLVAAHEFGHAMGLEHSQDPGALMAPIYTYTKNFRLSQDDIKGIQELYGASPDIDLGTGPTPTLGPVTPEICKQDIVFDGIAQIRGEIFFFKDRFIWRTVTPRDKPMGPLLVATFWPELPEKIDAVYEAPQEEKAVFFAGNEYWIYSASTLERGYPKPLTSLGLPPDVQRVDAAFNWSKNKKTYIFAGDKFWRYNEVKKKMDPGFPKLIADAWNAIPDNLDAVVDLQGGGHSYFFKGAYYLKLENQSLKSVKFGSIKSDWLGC
Structure (SMILES),IC50 (Aminopeptidase N) [µM],IC50 [1] [µM]
COc1cc(C(=O)N[C@H]2CCC(=O)N(CC(=O)NO)C2=O)cc(OC)c1OC,3.1,2.2
COC(=O)CN1C(=O)CC[C@H](NC(=O)c2cc(OC)c(OC)c(OC)c2)C1=O,63.4,10.6
COC(=O)[C@](C)(Cl)NC(=O)CN1C(=O)CC[C@H](NC(=O)c2cc(OC)c(OC)c(OC)c2)C1=O,50,15.6
COC(=O)[C@H](Cc1c[nH]c2ccccc12)NC(=O)CN1C(=O)CC[C@H](NC(=O)c2cc(OC)c(OC)c(OC)c2)C1=O,43.1,1.2
COc1cc(C(=O)N[C@H]2CCC(=O)N(CC(=O)O)C2=O)cc(OC)c1OC,49.8,4
COC(=O)[C@H](Cc1ccccc1)NC(=O)CN1C(=O)CC[C@H](NC(=O)c2cc(OC)c(OC)c(OC)c2)C1=O,11,1.3
CC(C)C[C@H](NC(=O)[C@@H](O)[C@H](N)Cc1ccccc1)C(=O)O [UBENIMEX],–,3.4
COC(=O)[C@H](Cc1ccc(O)cc1)NC(=O)CN1C(=O)CC[C@H](NC(=O)c2cc(OC)c(OC)c(OC)c2)C1=O,44.8,0.3
COC(=O)[C@H](CCCCNC(=O)c1ccccc1)NC(=O)CN1C(=O)CC[C@H](NC(=O)c2cc(OC)c(OC)c(OC)c2)C1=O,38.1,0.6
COC(=O)CCNC(=O)CN1C(=O)CC[C@H](NC(=O)c2cc(OC)c(OC)c(OC)c2)C1=O,53.7,2.2
COC(=O)CNC(=O)CN1C(=O)CC[C@H](NC(=O)c2cc(OC)c(OC)c(OC)c2)C1=O,55.4,4.4
COC(=O)[C@H](CCCNC(N)=N[N+](=O)[O-])NC(=O)CN1C(=O)CC[C@H](NC(=O)c2cc(OC)c(OC)c(OC)c2)C1=O,42,0.3
COC(=O)[C@@H](Cc1ccccc1)NC(=O)CN1C(=O)CC[C@H](NC(=O)c2cc(OC)c(OC)c(OC)c2)C1=O,46.2,1.4
COC(=O)[C@H](Cc1cnc[nH]1)NC(=O)CN1C(=O)CC[C@H](NC(=O)c2cc(OC)c(OC)c(OC)c2)C1=O,5.2,13

# Further lines, results first:
IC50 (Aminopeptidase N) [µM],IC50 [1] [µM],Structure (SMILES)
51.9,1.8,COC(=O)[C@@H](NC(=O)CN1C(=O)CC[C@H](NC(=O)c2cc(OC)c(OC)c(OC)c2)C1=O)[C@@H](C)O
50.3,1.7,COC(=O)[C@H](CS)NC(=O)CN1C(=O)CC[C@H](NC(=O)c2cc(OC)c(OC)c(OC)c2)C1=O
46.2,3.8,COC(=O)[C@H](CC(C)C)NC(=O)CN1C(=O)CC[C@H](NC(=O)c2cc(OC)c(OC)c(OC)c2)C1=O
49.3,4.3,CC[C@H](C)[C@H](NC(=O)CN1C(=O)CC[C@H](NC(=O)c2cc(OC)c(OC)c(OC)c2)C1=O)C(=O)OC
21.7,0.5,COC(=O)C[C@H](NC(=O)CN1C(=O)CC[C@H](NC(=O)c2cc(OC)c(OC)c(OC)c2)C1=O)C(=O)OC
20.7,1.2,COC(=O)[C@H](CCSC)NC(=O)CN1C(=O)CC[C@H](NC(=O)c2cc(OC)c(OC)c(OC)c2)C1=O
18.9,1.2,COC(=O)[C@H](C)NC(=O)CN1C(=O)CC[C@H](NC(=O)c2cc(OC)c(OC)c(OC)c2)C1=O
21.4,1,COC(=O)[C@@H](NC(=O)CN1C(=O)CC[C@H](NC(=O)c2cc(OC)c(OC)c(OC)c2)C1=O)C(C)C
